{
  "source": "ChEMBL document CHEMBL1743341",
  "about": "“Cytochrome p450 enzymes mechanism based inhibitors: common sub-structures and reactivity” (Curr Drug Metab, 2005)",
  "key": {"Cytochrome P450 2C9": {"target": "Cytochrome P450 2C9 (Homo sapiens, UniProt P11712)", "sequence (P11712 whole entry)": "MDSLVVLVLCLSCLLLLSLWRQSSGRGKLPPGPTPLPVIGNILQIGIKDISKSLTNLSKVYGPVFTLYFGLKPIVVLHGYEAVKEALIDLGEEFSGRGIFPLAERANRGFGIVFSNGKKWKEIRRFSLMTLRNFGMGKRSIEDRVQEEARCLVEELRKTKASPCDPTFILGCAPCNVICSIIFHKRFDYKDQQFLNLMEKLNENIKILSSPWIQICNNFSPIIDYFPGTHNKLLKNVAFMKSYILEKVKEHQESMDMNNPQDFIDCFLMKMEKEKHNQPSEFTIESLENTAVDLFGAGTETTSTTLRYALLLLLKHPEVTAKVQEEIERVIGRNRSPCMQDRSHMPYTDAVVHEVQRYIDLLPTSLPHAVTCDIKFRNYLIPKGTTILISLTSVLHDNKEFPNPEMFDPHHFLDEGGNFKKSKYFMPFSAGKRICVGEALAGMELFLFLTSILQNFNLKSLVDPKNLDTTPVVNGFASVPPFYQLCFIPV", "test": "Mechanism based inhibition of human cytochrome P450 2C9 measured by diclofenac 4-hydroxylation", "assay_type": "ADME"}, "Cytochrome P450 2D6": {"target": "Cytochrome P450 2D6 (Homo sapiens, UniProt P10635)", "sequence (P10635 whole entry)": "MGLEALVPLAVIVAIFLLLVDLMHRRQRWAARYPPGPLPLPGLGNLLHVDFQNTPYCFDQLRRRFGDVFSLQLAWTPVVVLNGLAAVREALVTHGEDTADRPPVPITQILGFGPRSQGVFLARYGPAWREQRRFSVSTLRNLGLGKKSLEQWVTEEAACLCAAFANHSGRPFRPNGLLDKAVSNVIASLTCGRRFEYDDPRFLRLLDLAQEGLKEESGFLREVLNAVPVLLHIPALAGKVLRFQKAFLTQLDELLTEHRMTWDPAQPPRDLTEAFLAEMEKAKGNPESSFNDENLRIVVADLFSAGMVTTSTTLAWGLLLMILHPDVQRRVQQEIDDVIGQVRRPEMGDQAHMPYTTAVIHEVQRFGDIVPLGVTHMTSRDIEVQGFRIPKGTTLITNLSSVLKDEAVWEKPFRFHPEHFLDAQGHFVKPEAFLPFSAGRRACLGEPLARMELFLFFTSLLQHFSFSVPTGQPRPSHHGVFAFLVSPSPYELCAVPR", "test": "Mechanism based inhibition of human cytochrome P450 2D6 measured by […] 1'-hydroxylation", "assay_type": "ADME"}, "Cytochrome P450 2B1 [1]": {"target": "T1, Cytochrome P450 2B1 (Rattus norvegicus, UniProt P00176)", "T1 sequence (P00176 whole entry)": "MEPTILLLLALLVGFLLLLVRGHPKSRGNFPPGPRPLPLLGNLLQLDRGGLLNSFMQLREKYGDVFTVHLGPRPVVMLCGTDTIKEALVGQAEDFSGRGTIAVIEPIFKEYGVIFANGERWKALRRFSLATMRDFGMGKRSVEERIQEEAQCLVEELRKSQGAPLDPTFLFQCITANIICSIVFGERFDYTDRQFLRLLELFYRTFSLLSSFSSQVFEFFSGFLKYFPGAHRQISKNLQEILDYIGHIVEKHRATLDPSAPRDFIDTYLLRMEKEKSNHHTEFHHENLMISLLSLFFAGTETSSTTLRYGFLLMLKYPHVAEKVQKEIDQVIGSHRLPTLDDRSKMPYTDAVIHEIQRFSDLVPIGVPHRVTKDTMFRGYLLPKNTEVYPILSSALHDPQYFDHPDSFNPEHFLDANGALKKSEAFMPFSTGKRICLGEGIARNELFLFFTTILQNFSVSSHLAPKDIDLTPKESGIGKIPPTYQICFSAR", "test": "(§1) Mechanism based inhibition of rat cytochrome P450 CYP2B1 measured by 7-EFC O-deethylation activity", "assay_type": "ADME"}, "Cytochrome P450 2B6": {"target": "T2, Cytochrome P450 2B6 (Homo sapiens, UniProt P20813)", "T2 sequence (P20813 whole entry)": "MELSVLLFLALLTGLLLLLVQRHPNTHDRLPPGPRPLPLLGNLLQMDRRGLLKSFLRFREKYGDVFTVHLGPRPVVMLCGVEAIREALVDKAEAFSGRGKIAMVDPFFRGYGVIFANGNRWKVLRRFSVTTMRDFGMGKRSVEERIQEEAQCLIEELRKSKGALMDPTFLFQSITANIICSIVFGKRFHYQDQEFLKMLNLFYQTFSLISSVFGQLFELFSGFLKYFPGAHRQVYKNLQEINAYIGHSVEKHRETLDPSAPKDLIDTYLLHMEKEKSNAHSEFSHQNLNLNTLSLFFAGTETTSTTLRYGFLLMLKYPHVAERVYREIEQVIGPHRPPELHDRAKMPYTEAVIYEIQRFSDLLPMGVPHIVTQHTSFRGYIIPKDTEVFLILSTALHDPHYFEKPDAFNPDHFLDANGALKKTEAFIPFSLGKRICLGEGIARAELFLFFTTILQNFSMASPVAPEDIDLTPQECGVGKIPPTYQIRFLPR", "test": "(§2) Mechanism based inhibition of human cytochrome P450 2B6", "assay_type": "ADME"}, "CYP2B6": {"target": "T3, CYP2B6 (Homo sapiens, UniProt P20813)", "T3 sequence (P20813 whole entry)": "T2 sequence (P20813 whole entry)", "test": "as §2", "assay_type": "ADME", "details": "human"}, "CYP1A2": {"target": "T4, CYP1A2 (Homo sapiens, UniProt P05177)", "T4 sequence (P05177 whole entry)": "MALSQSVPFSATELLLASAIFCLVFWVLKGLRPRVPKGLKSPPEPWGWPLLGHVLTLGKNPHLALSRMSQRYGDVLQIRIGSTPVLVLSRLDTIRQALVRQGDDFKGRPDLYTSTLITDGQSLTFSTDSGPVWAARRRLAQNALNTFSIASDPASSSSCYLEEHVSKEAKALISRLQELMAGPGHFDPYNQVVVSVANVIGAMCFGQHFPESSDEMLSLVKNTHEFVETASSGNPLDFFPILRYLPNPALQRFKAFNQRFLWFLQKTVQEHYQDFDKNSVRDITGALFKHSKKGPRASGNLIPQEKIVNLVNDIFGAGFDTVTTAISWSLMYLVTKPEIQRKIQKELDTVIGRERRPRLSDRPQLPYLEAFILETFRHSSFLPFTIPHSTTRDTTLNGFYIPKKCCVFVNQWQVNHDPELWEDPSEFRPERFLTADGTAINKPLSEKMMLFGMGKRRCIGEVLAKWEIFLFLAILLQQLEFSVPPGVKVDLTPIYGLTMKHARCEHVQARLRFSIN", "test": "(§3) Mechanism based inhibition of human cytochrome P450 1A2 measured by phenacetin O-deethylation (POD)", "assay_type": "ADME", "details": "human, probe phenacetin (O-deethylation, POD)"}, "Cytochrome P450 1A2 [2]": {"target": "T5, Cytochrome P450 1A2 (Homo sapiens, UniProt P05177)", "T5 sequence (P05177 whole entry)": "T4 sequence (P05177 whole entry)", "test": "as §3", "assay_type": "ADME"}, "CYP2B1": {"target": "T6, CYP2B1 (Rattus norvegicus, UniProt P00176)", "T6 sequence (P00176 whole entry)": "T1 sequence (P00176 whole entry)", "test": "as §1", "assay_type": "ADME", "details": "rat, probe 7-EFC (O-deethylation)"}, "Cytochrome P450 2B1 [3]": {"target": "T1, Cytochrome P450 2B1", "test": "Mechanism based inhibition of rat cytochrome P450 CYP2B1", "assay_type": "ADME", "details": "rat"}, "Cytochrome P450 1A2 [4]": {"target": "T5, Cytochrome P450 1A2", "test": "Mechanism based inhibition of human cytochrome P450 1A2 measured by 7-ethoxyresorufin O-deethylation (EROD)"}, "Cytochrome P450 1A1": {"target": "T7, Cytochrome P450 1A1 (Homo sapiens, UniProt P04798)", "T7 sequence (P04798 whole entry)": "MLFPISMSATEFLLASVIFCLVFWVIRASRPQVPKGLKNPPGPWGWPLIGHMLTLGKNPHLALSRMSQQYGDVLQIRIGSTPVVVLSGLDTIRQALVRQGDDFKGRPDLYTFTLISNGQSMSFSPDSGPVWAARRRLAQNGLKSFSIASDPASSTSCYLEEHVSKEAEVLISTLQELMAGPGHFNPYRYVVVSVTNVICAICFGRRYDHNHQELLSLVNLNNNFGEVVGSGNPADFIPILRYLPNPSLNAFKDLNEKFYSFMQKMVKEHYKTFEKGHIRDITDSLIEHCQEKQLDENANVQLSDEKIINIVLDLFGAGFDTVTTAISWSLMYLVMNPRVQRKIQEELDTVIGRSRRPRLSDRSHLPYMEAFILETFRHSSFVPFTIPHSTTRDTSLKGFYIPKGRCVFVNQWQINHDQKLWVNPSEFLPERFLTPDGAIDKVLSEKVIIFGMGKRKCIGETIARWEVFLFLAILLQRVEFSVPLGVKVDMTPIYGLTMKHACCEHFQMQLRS", "test": "Mechanism based inhibition of human cytochrome P450 1A1 measured by 7-ethoxyresorufin O-deethylation (EROD)", "assay_type": "ADME"}, "Cytochrome P450 1B1": {"target": "T8, Cytochrome P450 1B1 (Homo sapiens, UniProt Q16678)", "T8 sequence (Q16678 whole entry)": "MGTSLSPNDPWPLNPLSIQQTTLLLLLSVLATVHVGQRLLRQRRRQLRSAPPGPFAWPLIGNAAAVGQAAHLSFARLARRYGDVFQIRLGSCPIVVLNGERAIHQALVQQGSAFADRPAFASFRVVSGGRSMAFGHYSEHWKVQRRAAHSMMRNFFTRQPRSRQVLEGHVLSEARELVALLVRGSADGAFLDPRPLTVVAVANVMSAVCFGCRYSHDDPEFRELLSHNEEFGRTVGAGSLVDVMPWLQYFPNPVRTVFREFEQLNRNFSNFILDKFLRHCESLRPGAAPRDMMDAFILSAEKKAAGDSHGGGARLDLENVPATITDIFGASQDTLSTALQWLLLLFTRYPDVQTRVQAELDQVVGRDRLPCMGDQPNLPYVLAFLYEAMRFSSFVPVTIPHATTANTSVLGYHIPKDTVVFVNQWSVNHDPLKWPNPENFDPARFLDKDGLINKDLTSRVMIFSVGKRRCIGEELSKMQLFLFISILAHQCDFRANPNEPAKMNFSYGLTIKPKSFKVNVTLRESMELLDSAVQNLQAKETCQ", "test": "Mechanism based inhibition of human cytochrome P450 1B1 measured by 7-ethoxyresorufin O-deethylation (EROD)", "assay_type": "ADME"}, "Cytochrome P450 3A5": {"target": "Cytochrome P450 3A5 (Homo sapiens, UniProt P20815)", "sequence (P20815 whole entry)": "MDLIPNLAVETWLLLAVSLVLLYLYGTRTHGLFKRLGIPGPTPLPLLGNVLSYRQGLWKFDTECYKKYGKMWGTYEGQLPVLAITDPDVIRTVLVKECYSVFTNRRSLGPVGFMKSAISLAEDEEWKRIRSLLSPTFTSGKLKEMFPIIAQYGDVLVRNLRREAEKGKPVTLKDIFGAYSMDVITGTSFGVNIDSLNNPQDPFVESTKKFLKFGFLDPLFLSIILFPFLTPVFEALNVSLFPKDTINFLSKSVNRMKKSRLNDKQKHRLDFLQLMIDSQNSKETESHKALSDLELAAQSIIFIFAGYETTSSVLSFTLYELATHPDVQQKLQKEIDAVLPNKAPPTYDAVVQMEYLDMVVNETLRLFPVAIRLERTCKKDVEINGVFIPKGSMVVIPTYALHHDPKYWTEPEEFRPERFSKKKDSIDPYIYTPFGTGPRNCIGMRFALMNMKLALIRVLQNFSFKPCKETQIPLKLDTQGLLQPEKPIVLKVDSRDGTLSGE", "test": "Mechanism based inhibition of human cytochrome P450 3A5", "assay_type": "ADME"}, "Cytochrome P450 2C11": {"target": "T9, Cytochrome P450 2C11 (Rattus norvegicus, UniProt P08683)", "T9 sequence (P08683 whole entry)": "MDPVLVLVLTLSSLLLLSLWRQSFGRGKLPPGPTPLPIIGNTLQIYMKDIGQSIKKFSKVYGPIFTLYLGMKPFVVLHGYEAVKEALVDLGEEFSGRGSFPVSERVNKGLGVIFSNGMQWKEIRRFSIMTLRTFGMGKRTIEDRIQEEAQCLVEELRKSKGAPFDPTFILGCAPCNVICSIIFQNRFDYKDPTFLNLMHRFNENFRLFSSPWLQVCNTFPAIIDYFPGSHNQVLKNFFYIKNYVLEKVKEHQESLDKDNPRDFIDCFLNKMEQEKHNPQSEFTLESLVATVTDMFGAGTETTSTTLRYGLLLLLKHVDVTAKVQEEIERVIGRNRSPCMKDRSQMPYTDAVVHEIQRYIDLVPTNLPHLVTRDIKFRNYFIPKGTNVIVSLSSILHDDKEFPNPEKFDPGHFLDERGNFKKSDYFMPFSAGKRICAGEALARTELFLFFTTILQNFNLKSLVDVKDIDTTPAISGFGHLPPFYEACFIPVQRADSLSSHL", "test": "Mechanism based inhibition of rat cytochrome P450 CYP2C11 measured by 2-alpha and 16-alpha hydroxylation of testosterone", "assay_type": "ADME"}},
  "data": [
    {"smiles": "COc1ccc2c(c1OC)C(=O)O[C@@H]2[C@H]1c2cc3c(cc2CCN1C)OCO3", "note": "[HYDRASTINE]", "values": [
      {"measurement": "mechanism based inhibition", "setting": "Cytochrome P450 2C9", "value": "Cytochrome P450 mechanistic inhibitor: PMID 14570772"},
      {"measurement": "mechanism based inhibition", "setting": "Cytochrome P450 2D6", "value": "Cytochrome P450 mechanistic inhibitor: PMID 14570772"}
    ]},
    {"smiles": "c1ccc(C2(N3CCCCC3)CCCCC2)cc1", "note": "[PHENCYCLIDINE]", "values": [
      {"measurement": "mechanism based inhibition", "setting": "Cytochrome P450 2B1 [1]; rat", "value": "Cytochrome P450 mechanistic inhibitor: PMID 9029055"},
      {"measurement": "Ki", "setting": "Cytochrome P450 2B6", "value": 10, "unit": "µM"},
      {"measurement": "kinact", "setting": "CYP2B6", "value": 0.000167, "unit": "s⁻¹"}
    ]},
    {"smiles": "C[C@@H](c1cc2ccccc2s1)N(O)C(N)=O", "values": [
      {"measurement": "kinact", "setting": "CYP1A2", "value": 0.000617, "unit": "s⁻¹"},
      {"measurement": "Ki", "setting": "Cytochrome P450 1A2 [2]", "value": 98.2, "unit": "µM"}
    ]},
    {"smiles": "C#CCN(C)[C@H](C)Cc1ccccc1", "note": "[SELEGILINE]", "values": [
      {"measurement": "kinact", "setting": "CYP2B1", "value": 0.00383, "unit": "s⁻¹"},
      {"measurement": "Ki", "setting": "Cytochrome P450 2B1 [1]", "value": 1.05, "unit": "µM"}
    ]},
    {"smiles": "C=CCC1(C(C)CCC)C(=O)NC(=O)NC1=O", "note": "(configuration not stated) [SECOBARBITAL]", "values": [
      {"measurement": "mechanism based inhibition", "setting": "Cytochrome P450 2B1 [3]", "value": "Cytochrome P450 mechanistic inhibitor: PMID 8728507"}
    ]},
    {"smiles": "C[C@H](c1cc2ccccc2s1)N(O)C(N)=O", "values": [
      {"measurement": "kinact", "setting": "CYP1A2", "value": 0.0002, "unit": "s⁻¹"},
      {"measurement": "Ki", "setting": "Cytochrome P450 1A2 [2]", "value": 66, "unit": "µM"}
    ]},
    {"smiles": "Nc1c2c(nc3ccccc13)CCCC2", "note": "[TACRINE]", "values": [
      {"measurement": "Ki", "setting": "Cytochrome P450 1A2 [4]", "value": 1.94, "unit": "µM"}
    ]},
    {"smiles": "C#Cc1cc2ccc3cccc4ccc(c1)c2c34", "values": [
      {"measurement": "mechanism based inhibition", "setting": "Cytochrome P450 1A1", "value": "Cytochrome P450 mechanistic inhibitor: PMID 9760279"},
      {"measurement": "mechanism based inhibition", "setting": "Cytochrome P450 1B1", "value": "Cytochrome P450 mechanistic inhibitor: PMID 9760279"}
    ]},
    {"smiles": "CC(C)(C)NC(=O)[C@@H]1CN(Cc2cccnc2)CCN1C[C@@H](O)C[C@@H](Cc1ccccc1)C(=O)N[C@H]1c2ccccc2C[C@H]1O.O", "values": [
      {"measurement": "mechanism based inhibition", "setting": "Cytochrome P450 3A5", "value": "Cytochrome P450 mechanistic inhibitor: PMID 15523003"}
    ]},
    {"smiles": "CNCCC(Oc1ccccc1OC)c1ccccc1", "note": "(configuration not stated) [NISOXETINE]", "values": [
      {"measurement": "mechanism based inhibition", "setting": "Cytochrome P450 2C11", "value": "Cytochrome P450 mechanistic inhibitor: PMID 14555335"}
    ]}
  ]
}
